Common to all, as to assay type: cell-based
Experiment [1] concerns the target T1, Human GPR40 (Homo sapiens, UniProt O14842). Put plainly: Inositol Phosphate Turnover (IP1) Assay 2 (HEK cells stably expressing human GPR40, CisBio IP-One kit). On the set-up: expressed in transfected cells; host or cells: HEK cells stably expressing the aequorin reporter. Particulars: HEK cells stably expressing human GPR40, 384-well. The procedure: (§1) Human and mouse GPR40 stable cell-lines were generated in CHO cells stably expressing NFAT BLA (Beta-lactamase). A human GPR40 stable cell-line was generated in HEK cells stably expressing the aequorin expressing reporter. The expression plasmids were transfected using lipofectamine (Life Technologies) following manufacturer's instructions. Stable cell-lines were generated following drug selection.
The assay was performed in 384-well format. HEK cells stably expressing human GPR40 were plated at 15,000 cells per well in growth medium (DMEM/10% fetal calf serum). Cell plates were then incubated 16 hours at 37 degrees in a 5% CO2 incubator.
Measurement of Inositol Phosphate Turnover (IP1) was performed using the CisBio IP-One kit (Part number 62IPAPEB). After the 16 hour incubation, the cells were washed with HEPES buffer and 10 ul of stimulation buffer (prepared as described in the kit) was added to each well. In a separate plate, compounds were diluted in DMSO (400-fold over the final concentration in the assay well) and 25 nl was acoustically transferred to the appropriate well in the assay cell plate. The plates were then incubated for 60 minutes at 37 degrees. 10 ul of detection buffer (also prepared as described in the IP-One kit) was added to each well and the plates were incubated for 60 minutes in the dark. The plates were then read in a Perkin Elmer EnVision or equivalent reader able to measure FRET. Fluorescent ratio of emission at 665 and 620 nm was then converted to IP1 concentration by back calculating from an IP1 standard curve prepared at the time of the assay.

For experiment [2], the target named is T1, Human GPR40. Put plainly: FLIPR assay (agonist-induced calcium mobilization, GPR40/CHO NFAT BLA cells). Further details: expressed in transfected cells. The procedure:
as §1
FLIPR (Fluorimetric Imaging Plate Reader, Molecular Devices) assays were performed to measure agonist-induced calcium mobilization of the stable clones. For the FLIPR assay, one day before assay, GPR40/CHO NFAT BLA cells were seeded into black-wall-clear-bottom 384-well plates (Costar) at 1.4×10e4 cells/20 μL medium/well. The cells were incubated with 20 μl/well of the assay buffer (HBSS, 0.1% BSA, 20 mM HEPES, 2.5 mM probenecid, pH 7.4) containing 8 μM fluo-4, AM, 0.08% pluronic acid at room temperature for 100 minutes. Fluorescence output was measured using FLIPR. Compounds were dissolved in DMSO and diluted to desired concentrations with assay buffer. 13.3 μL/well of compound solution was added.
A general note: A change in cytosolic calcium serves as a functional read-out for many receptors and channels.

Experiment [3] addresses T1, Human GPR40. Nature of the experiment: Inositol Phosphate Turnover Assay 1 (HEK cells stably expressing human GPR40). Particulars: HEK cells stably expressing human GPR40, 96-well, 3H-inositol; read-out: Human GPR40 IP1 Assay 1, EC50. Further details: expressed in transfected cells; host or cells: HEK cells stably expressing the aequorin reporter. The procedure: as §1
The assay was performed in 96-well format. HEK cells stably expressing human GPR40 were plated to be 60-80% confluent within 72 h. After 72 h, the plates were aspirated and the cells washed with inositol-free DMEM (ICN). The wash media was replaced with 150 μL of 3H-inositol labeling media (inositol-free media containing 0.4% human albumin or 0.4% mouse albumin, 1× pen/strep antibiotics, glutamine, 25 mM HEPES to which was added 3H-myo-inositol NEN #NET114A 1 mCi/mL, 25 Ci/mmol diluted 1:150 in loading media with a final specific radioactivity of 1 μCi/150 μL). Alternatively, the human and mouse albumin can be added after the overnight labeling step before the addition of LiCl.
The assay was typically run the next day after 18 h labeling. On the day of the assay, 5 μL of 300 mM LiCl was added to all wells and incubated at 37 degrees for 20 min. 0.75 μL of 200× compounds were added and incubated with the cells for 60 min at 37 degrees. The media was then aspirated off and the assay terminated with the addition of 60 μL 10 mM formic acid. The cells were lysed for 60 min at room temperature. 15-30 μL of lysate was mixed with 70 μL/1 mg YSi SPA beads (Amersham) in clear bottom Isoplates. The plates were shaken for 2 h at room temperature. Beads were allowed to settle and the plates were counted in the Wallac Microbeta.

T1 sequence (O14842 whole entry): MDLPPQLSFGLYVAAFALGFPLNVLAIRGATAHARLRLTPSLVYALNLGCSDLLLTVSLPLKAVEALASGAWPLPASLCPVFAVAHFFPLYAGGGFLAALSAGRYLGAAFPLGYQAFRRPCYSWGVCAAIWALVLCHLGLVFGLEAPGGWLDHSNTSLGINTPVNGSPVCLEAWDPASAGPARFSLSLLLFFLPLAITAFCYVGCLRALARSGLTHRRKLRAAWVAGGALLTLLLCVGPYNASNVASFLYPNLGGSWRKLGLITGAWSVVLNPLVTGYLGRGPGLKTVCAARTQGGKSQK

As a reminder, the EC50 is the concentration at which the effect is half-maximal. In the case of `Cc1cc(OC2CC(C(C)(O)CO)C2)cc(C)c1-c1cc(COc2cc3c(cn2)C2C(C3)C2C(=O)O)c(F)cc1F` (single isomer, unassigned) [Compound-21], a half-maximal response on Human GPR40 [1] (EC50) required 1 nM.

At Human GPR40 [1], `Cc1cc(OC2CC(C(C)(O)CO)C2)cc(C)c1-c1cc(COc2cc3c(cn2)C2C(C3)C2C(=O)O)c(F)cc1F` (single isomer, unassigned) [Compound-22] yielded an EC50 of 0.7 nM.

`O=C(O)[C@H]1[C@@H]2Cc3cc(OCc4cc(-c5ccc(OC[C@H]6C[C@@](O)(CO)C6)cc5Cl)c(F)cc4F)ncc3[C@@H]21` (single isomer, unassigned) [Compound-23]: it took 1 nM to reach a half-maximal effect at Human GPR40 [1] (EC50).

On Human GPR40 [1], `O=C(O)[C@H]1[C@@H]2Cc3cc(OCc4cc(-c5ccc(OC[C@H]6C[C@](O)(CO)C6)cc5Cl)c(F)cc4F)ncc3[C@@H]21` (single isomer, unassigned) [Compound-24] showed an EC50 of 1.3 nM.

Consider `Cc1cc(OC[C@H]2C[C@@](O)(CO)C2)cc(C)c1-c1cc(COc2cc3c(cn2)[C@H]2[C@@H](C3)[C@@H]2C(=O)O)c(F)cc1F` (single isomer, unassigned) [Compound-25], for which the EC50 at Human GPR40 [1] worked out at 1.9 nM.

On Human GPR40 [1], `Cc1cc(OC[C@H]2C[C@](O)(CO)C2)cc(C)c1-c1cc(COc2cc3c(cn2)[C@H]2[C@@H](C3)[C@@H]2C(=O)O)c(F)cc1F` (single isomer, unassigned) [Compound-26] had an EC50 of 1.6 nM.

For `C[C@]1(O)C[C@@H](COc2ccc(-c3cc(COc4cc5c(cn4)[C@H]4[C@@H](C5)[C@@H]4C(=O)O)c(F)cc3C(F)(F)F)cc2F)C1` [Compound-1, (5aR,6S,6aS)-3-{[3′,4-difluoro-4′-(((1s,3s)-3-hydroxy-3-methylcyclobutyl)methoxy)-6-(trifluoromethyl)-[1,1′-biphenyl]-3-yl]methoxy}-5,5a,6,6a-tetrahydrocyclopropa[4,5]cyclopenta[1,2-c]pyridine-6-carboxylic acid], the values for the EC50 at Human GPR40 [2] and on Human GPR40 [3] were 7 nM and 11 nM, respectively.

Turning to `C[C@]1(O)C[C@@H](COc2c(F)cc(-c3cc(COc4cc5c(cn4)[C@H]4[C@@H](C5)[C@@H]4C(=O)O)c(F)cc3C(F)(F)F)cc2F)C1` [Compound-2, (5aR,6S,6aS)-3-{[3′,4,5′-trifluoro-4′-(((1s,3s)-3-hydroxy-3-methylcyclobutyl)methoxy)-6-(trifluoromethyl)-[1,1′-biphenyl]-3-yl]methoxy}-5,5a,6,6a-tetrahydrocyclopropa[4,5]cyclopenta[1,2-c]pyridine-6-carboxylic acid], the EC50 at Human GPR40 [2] amounted to 5.8 nM; at Human GPR40 [3], 6.9 nM.

Turning to `C[C@]1(O)CC[C@H](Oc2c(F)cc(-c3cc(COc4cc5c(cn4)[C@H]4[C@@H](C5)[C@@H]4C(=O)O)c(F)cc3C(F)(F)F)cc2F)CC1` [Compound-3, (5aR,6S,6aS)-3-{[3′,4,5′-trifluoro-4′-(((1r,4r)-4-hydroxy-4-methylcyclohexyl)oxy)-6-(trifluoromethyl)-[1,1′-biphenyl]-3-yl]methoxy}-5,5a,6,6a-tetrahydrocyclopropa[4,5]cyclopenta[1,2-c]pyridine-6-carboxylic acid], the EC50 amounted to 3.7 nM at Human GPR40 [2] and 14 nM at Human GPR40 [3].

For `N#Cc1ccc(-c2ccc(-c3cc(COc4cc5c(cn4)[C@H]4[C@@H](C5)[C@@H]4C(=O)O)c(F)cc3C(F)(F)F)cc2)cc1` [Compound-9, (5aR,6S,6aS)-3-((4″-cyano-4-fluoro-6-(trifluoromethyl)-[1,1′:4′,1″-terphenyl]-3-yl)methoxy)-5,5a,6,6a-tetrahydrocyclopropa[4,5] cyclopenta[1,2-c]pyridine-6-carboxylic acid], the EC50 on Human GPR40 [3] is 8.9 nM.

With `CS(=O)(=O)c1ccc(-c2ccc(-c3cc(COc4cc5c(cn4)[C@H]4[C@@H](C5)[C@@H]4C(=O)O)c(F)cc3C(F)(F)F)cc2)cc1` [Compound-10, (5aR,6S,6aS)-3-((4-fluoro-4″-(methylsulfonyl)-6-(tri-fluoromethyl)-[1,1′;4′,1″- terphenyl]-3-yl)methoxy)-5,5a,6,6a-tetrahydrocyclo-propa[4,5]cyclpenta [1,2-c]pyridine-6-carboxylic acid], the EC50 on Human GPR40 [3] turned out to be 2.9 nM.

Consider `Cc1nc(OC[C@H]2C[C@@](C)(O)C2)ccc1-c1cc(COc2cc3c(cn2)[C@H]2[C@@H](C3)[C@@H]2C(=O)O)c(F)cc1C(F)(F)F` [Compound-14, (5 aR,6S,6aS)-3-((2-fluoro-5-(6-(((1s,3s)-3-hydroxy-3-methylcyclobutyl)methoxy)-2-methylpyridin-3-yl)-4-(trifluoromethyl)benzyl)oxy)-5,5a,6,6a-tetrahydrocyclopropa-[4,5]cyclopenta[1,2-c]pyridine-6-carboxylic acid], for which the EC50 came to 6.3 nM on Human GPR40 [3] and 1.2 nM on Human GPR40 [1].

Take `Cc1cc(O[C@H]2C[C@H](S(C)(=O)=O)C2)cc(C)c1-c1cc(COc2cc3c(cn2)[C@H]2[C@@H](C3)[C@@H]2C(=O)O)c(F)cc1F` [Compound-15]: the EC50 on Human GPR40 [3] was 6.7 nM; on Human GPR40 [1], 1.2 nM.

Take `Cc1cc(-c2nnn(CC(C)(C)O)n2)cc(C)c1-c1cc(COc2cc3c(cn2)[C@H]2[C@@H](C3)[C@@H]2C(=O)O)c(F)cc1F` [Compound-16, (5aR,6S,6aS)-3-((4,6-difluoro-4′-(2-(2-hydroxy-2-methylpropyl)-2H-tetrazol-5-yl)-2′,6′-dimethyl-[1,1′-biphenyl]-3-yl)methoxy)-5,5a,6,6a-tetrahydrocyclopropa[4,5]cyclopenta[1,2-c]pyridine-6-carboxylic acid]: the values for the concentration giving a half-maximal response (EC50) on Human GPR40 [3] and at Human GPR40 [1] were 9.4 nM and 1 nM, respectively.

As to `Cc1cc(-c2ncn(CC(C)(C)O)n2)cc(C)c1-c1cc(COc2cc3c(cn2)[C@H]2[C@@H](C3)[C@@H]2C(=O)O)c(F)cc1F` [Compound-17, (5aR,6S,6aS)-3-((4,6-difluoro-4′-(1-(2-hydroxy-2-methylpropyl)-1H-1,2,4-triazol-3-yl)-2′,6′-dimethyl-[1,1′-biphenyl]-3-yl)methoxy)-5,5a,6,6a-tetrahydrocyclopropa[4,5]cyclopenta[1,2-c]pyridine-6-carboxylic acid], on Human GPR40 [1], the concentration giving a half-maximal response (EC50) is 0.8 nM.

For `Cc1nc(N2Cc3cn(CC(C)(C)O)nc3C2)ccc1-c1cc(COc2cc3c(cn2)[C@H]2[C@@H](C3)[C@@H]2C(=O)O)c(F)cc1C(F)(F)F` [Compound-18, (5aR,6S,6aS)-3-((2-fluoro-5-(6-(2-(2-hydroxy-2-methylpropyl)pyrrolo[3,4-c]pyrazol-5(2H,4H,6H)-yl)-2-methylpyridin-3-yl)-4-(trifluoromethyl)benzyl)oxy)-5,5a,6,6a-tetrahydrocyclopropa[4,5]cyclopenta[1,2-c]pyridine-6-carboxylic acid], the EC50 at Human GPR40 [3] turned out to be 7.6 nM; on Human GPR40 [1], 1 nM.

Take `Cc1nc(OC2CC(S(C)(=O)=O)C2)ccc1-c1cc(COc2cc3c(cn2)[C@H]2[C@@H](C3)[C@@H]2C(=O)O)c(F)cc1C(F)(F)F` (stereo partly shown) [Compound-19]: at Human GPR40 [1], the EC50 is 2.1 nM.

As to `Cc1cc(OC[C@H]2C[C@](C)(O)[C@](C)(O)C2)cc(C)c1-c1cc(COc2cc3c(cn2)[C@H]2[C@@H](C3)[C@@H]2C(=O)O)c(F)cc1F` [Compound-20, (5aR,6S,6aS)-3-((4′-(((1s,3R,4S)-3,4-dihydroxy-3,4-dimethylcyclopentyl)methoxy)-4,6-difluoro-2′,6′-dimethyl-[1,1′-biphenyl]-3-yl)methoxy)-5,5a,6,6a-tetrahydrocyclopropa-[4,5]cyclopenta[1,2-c]pyridine-6-carboxylic acid], at Human GPR40 [1], a half-maximal response (EC50) required 3.1 nM.

The values are drawn from patent publication US10519115B2, “Antidiabetic tricyclic compounds” (Merck Sharp & Dohme Corp., priority 2013, dated 2019).
